Target: T1, Human eIF4E (Homo sapiens, UniProt P06730)
T1 construct: Human eIF4E (aa 28-217) with a C-terminal His-tag; made in house
Experiment: Human eIF4E/4G2 binding assay (TR-FRET)
Details: purified human eIF4E (aa 28-217), biotin labeled 4G2 peptide, 4 hours preincubation at room temperature
Protocol: Example 3. Compound Testing in Human eIF4E/4G2 Binding Assay
Human eIF4E (aa 28-217) with a C-terminal His-tag was expressed in E. coli in inclusion bodies. The protein was solubilized with 8 M urea and purified under denaturing conditions using nickel-charged HisTrap HP columns (GE Healthcare). The purified protein was then refolded by diluting in 20 mM Hepes pH 7.0, 0.5 M NaCl, 1 mM DTT, 1 mM EDTA, 0.5 M arginine plus 6 M urea, and then dialyzing overnight into the same buffer without the urea. The protein was further dialyzed into 20 mM Hepes, pH 6.5, 50 mM NaCl, 1 mM EDTA, 1 mM DTT, and concentrated using Hitrap SP sepharose FF columns (GE Healthcare). The concentrated protein was dialyzed into 20 mM Hepes, pH 7.0, 0.5 M NaCl, 5 mM DTT and 10% glycerol, and stored at -80° C. until use.
Test compounds (3.43 mM stock in DMSO) were diluted 2-fold in series in DMSO (10 concentration points). Compound solutions (1.2 µl/well) were added into black 384-well polypropylene microplates (Matrix, Thermal Scientific). Twenty-two microliters per well of Assay Buffer (50 mM NaPi, pH 6.5, 50 mM KCl, 1 mM DTT and 0.5 mg/ml gamma globulin) and eight microliters per well of 82.5 nM purified eIF4E in Assay Buffer were added. The samples were incubated at room temperature (20-23° C.) for 4 hours. Biotin labeled 4G2 peptide (Ac-Lys-Gln-Tyr-Asp-Arg-Glu-Phe-Leu-Leu-Asp-Phe-Gln-Phe-Met-Pro-Lys(Aha-Bio)-NH2, 1.75 µM stock in DMSO) was diluted to 0.14 µM in Assay Buffer (without DTT) and 5 µl/well was added. The samples were incubated at room temperature for 20 min. Five microliters per well of 6.4 nM Eu-streptavidin (Eu-SA, Perkin Elmer) and 80 nM Allophycocyanin (APC)-anti His antibody (Columbia Biosciences) in Assay Buffer (without DTT) were then added and the samples were incubated at room temperature for 20 min.
Assay signals were monitored by reading excitation at 340 nm and emission fluorescence at 615 nm and 665 nm on an Envision reader (Perkin Elmer). Normalized TR-FRET (time-resolved fluorescence resonance energy transfer) assay signal (Rn) was calculated by the formula: Rn = [(A-Ba-C x D)/(D-Bd)] x (Dc- Bd) • Where A is the fluorescence intensity of the sample at 665 nm, • D is the fluorescence intensity of the sample at 615 nm, • Ba and Bd are plate backgrounds at 665 nm and 615 nm, respectively, • Dc is the fluorescence intensity of 0.78 nM Eu-SA in the assay buffer at 615 nm • The cross-talk factor (C) is determined by the following formula: • C = (Ac- Ba)/(Dc-Bd) • Where Ac is the fluorescence intensity of 0.78 nM Eu-SA in the assay buffer at 665 nm.
IC50 values were calculated using xLFit program (IDBS). Table 2 below lists […] of some compounds, wherein A represents IC50 ≤ 0.5 µM; B represents 0.5 uM < IC50 ≤ 1 µM; and C represents IC50 > 1 µM.

T1 sequence (P06730 28-217): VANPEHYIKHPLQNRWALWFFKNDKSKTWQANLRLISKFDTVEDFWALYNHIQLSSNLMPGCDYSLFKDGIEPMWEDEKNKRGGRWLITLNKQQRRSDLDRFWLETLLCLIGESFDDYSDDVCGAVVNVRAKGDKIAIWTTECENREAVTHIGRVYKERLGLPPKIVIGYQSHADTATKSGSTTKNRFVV

SMILES	IC50 [nM]
COCCOc1ccc(-c2nc(Nc3ncc(-c4ccsc4)cc3C(=O)O)sc2CC(C)C)cc1F [I-55]	500 to 1000
COCCOc1ccc(-c2nc(Nc3ncc(-c4cccs4)cc3C(=O)O)sc2C2CC2)c(F)c1 [I-26]	> 1000
COc1ccc(-c2nc(Nc3cc(-c4ccccc4)sc3C(=O)O)sc2CC(C)C)cc1 [I-12]	500 to 1000
COCCOc1ccc(-c2nc(Nc3ncc(-c4ccco4)cc3C(=O)O)sc2CC(C)C)cc1F [I-57]	500 to 1000
COc1ccc(-c2nc(Nc3ncc(-c4cccs4)cc3C(=O)O)sc2C2CC2)c(F)c1 [I-27]	500 to 1000
COCCOc1ccc(-c2nc(Nc3ncc(-c4cccs4)cc3C(=O)O)sc2C2CC2)cc1 [I-22]	500 to 1000
COc1ccc(-c2nc(Nc3cc(-c4ccccc4)sc3C(=O)O)sc2C2CC2)c(F)c1 [I-25]	500 to 1000
COCCOc1ccc(-c2nc(Nc3ncc(-c4cc(C)cs4)cc3C(=O)O)sc2C2CCCC2)cc1 [1-38]	500 to 1000
COCCOc1cc(-c2nc(Nc3ncc(-c4cccs4)cc3C(=O)O)sc2CC(C)C)ccc1F [I-59]	500 to 1000
COc1ccc(-c2nc(Nc3ncc(-c4cccs4)cc3C(=O)O)sc2CCC(C)C)cc1F [I-69]	≤ 500
COc1ccc(-c2nc(Nc3ccc(-c4cccs4)nc3C(=O)O)sc2CC(C)C)cc1F [I-70]	≤ 500
CC(C)Cc1sc(Nc2ncc(-c3cccs3)cc2C(=O)O)nc1-c1ccc(O)cc1 [I-13]	> 1000
CC(C)Cc1sc(Nc2ncc(-c3cccs3)cc2C(=O)O)nc1-c1cccc(OCCF)c1 [I-103]	≤ 500
CC(C)Cc1sc(Nc2ncc(-c3cccs3)cc2C(=O)O)nc1-c1cccc(Oc2ccccc2)c1 [I-129, 2-((5-isobutyl-4-(3-phenoxyphenyl)thiazol-2-yl)amino)-5-(thiophen-2-yl)nicotinic acid]	≤ 500
COCCOc1ccc(-c2nc(Nc3ncc(-c4ccc(C)s4)cc3C(=O)O)sc2CC(C)C)cc1 [I-34]	≤ 500
CC(C)Cc1sc(Nc2ncc(-c3cccs3)cc2C(=O)O)nc1-c1cccc(O)c1 [I-111]	500 to 1000
COc1ccc(-c2nc(Nc3cc(-c4ccccc4)sc3C(=O)O)sc2C2CC2)cc1 [I-21]	500 to 1000

SMILES	IC50 [nM]
CC(C)Cc1sc(Nc2ncc(-c3cccs3)cc2C(=O)O)nc1-c1ccsc1 [I-127]	≤ 500
Cc1ccc(-c2nc(Nc3ncc(-c4cccs4)cc3C(=O)O)sc2CC(C)C)s1 [I-141]	≤ 500
COCCOc1ccc(-c2nc(Nc3ncc(-c4cccc(F)c4)cc3C(=O)O)sc2CC(C)C)cc1F [I-52]	≤ 500
CCOc1cc(-c2nc(Nc3ncc(-c4cccs4)cc3C(=O)O)sc2CC(C)(C)C)ccc1F [I-92]	≤ 500
CC(C)Cc1sc(Nc2ncc(-c3cccs3)cc2C(=O)O)nc1-c1cccc(OCCOCCN(C)C)c1 [I-116]	> 1000
COCCOc1cc(-c2nc(Nc3ncc(-c4cccs4)cc3C(=O)O)sc2CCC(C)C)ccc1Cl [I-83]	≤ 500
Cc1csc(-c2cnc(Nc3nc(-c4ccc(OC(F)F)cc4)c(CC(C)C)s3)c(C(=O)O)c2)c1 [1-36]	≤ 500
COCCOc1ccc(-c2nc(Nc3ncc(-c4cccs4)cc3C(=O)O)sc2CCC(C)C)cc1Cl [I-45]	≤ 500
CCCc1sc(Nc2ncc(-c3cccs3)cc2C(=O)O)nc1-c1cccc(OCC)c1 [I-112]	≤ 500
COCCOc1ccc(-c2nc(Nc3ncc(-c4cccs4)cc3C(=O)O)sc2C2CC2)cc1F [I-29]	500 to 1000
CCOc1cccc(-c2nc(Nc3ncc(-c4cccs4)cc3C(=O)O)sc2CC(C)(C)C)c1 [I-98]	≤ 500
CCCc1sc(Nc2ncc(-c3cccs3)cc2C(=O)O)nc1-c1ccc(OCCOC)c(F)c1 [I-49]	500 to 1000
COc1ccc(-c2nc(Nc3ncc(-c4cccs4)nc3C(=O)O)sc2CCC(C)C)cc1Cl [I-61]	≤ 500
COc1c(Cl)cc(-c2nc(Nc3ncc(-c4cccs4)cc3C(=O)O)sc2CC(C)C)cc1Cl [I-4]	≤ 500
Cc1ccc(-c2cnc(Nc3nc(-c4ccc(OC(F)F)cc4)c(CC(C)C)s3)c(C(=O)O)c2)s1 [I-33]	> 1000
COCCOc1ccc(-c2nc(Nc3ncc(-c4cccs4)cc3C(=O)O)sc2C(C)C)cc1F [I-31]	500 to 1000

The next lines start with the values.

IC50 [nM]	SMILES
≤ 500	COc1cc(-c2nc(Nc3ncc(-c4cccs4)cc3C(=O)O)sc2CCC(C)C)ccc1Cl [I-90]
≤ 500	CC(C)Cc1sc(Nc2ncc(-c3cccs3)cc2C(=O)O)nc1-c1ccc(OC(F)(F)F)c(Cl)c1 [I-9]
≤ 500	CCOCCOc1ccc(-c2nc(Nc3ncc(-c4cccs4)cc3C(=O)O)sc2CC(C)C)cc1F [I-66]
≤ 500	COc1cc(-c2nc(Nc3ncc(-c4cccs4)cc3C(=O)O)sc2CC(C)C)ccc1C [I-107]
≤ 500	CC(C)Cc1sc(Nc2ncc(-c3cccs3)cc2C(=O)O)nc1-c1ccc(F)c(OC(C)C)c1 [I-86]
≤ 500	COc1cc(-c2nc(Nc3ncc(-c4cccs4)cc3C(=O)O)sc2CC(C)C)cc(C(F)(F)F)c1 [I-104, 2-((5-isobutyl-4-(3-methoxy-5-(trifluoromethyl)phenyl)thiazol-2-yl)amino)-5-(thiophen-2-yl)nicotinic acid]
≤ 500	CC(C)Cc1sc(Nc2ncc(-c3cccs3)cc2C(=O)O)nc1-c1ccc2c(c1)OCO2 [I-124, 2-((4-(benzo[d][1,3]dioxol-5-yl)-5-isobutylthiazol-2-yl)amino)-5-(thiophen-2-yl)nicotinic acid]
≤ 500	COc1ccc(-c2nc(Nc3ncc(-c4cccs4)nc3C(=O)O)sc2CC(C)C)cc1F [I-60, 3-((4-(3-fluoro-4-methoxyphenyl)-5-isobutylthiazol-2-yl)amino)-6-(thiophen-2-yl)pyrazine-2-carboxylic acid]
≤ 500	COCCOc1ccc(-c2nc(Nc3ncc(-c4cccs4)cc3C(=O)O)sc2CC(C)C)cc1 [I-16]
≤ 500	COCCOc1ccc(-c2nc(Nc3ncc(-c4cc(C)cs4)cc3C(=O)O)sc2CC(C)C)cc1Cl [I-44]
≤ 500	CC(C)Cc1sc(Nc2ncc(-c3cccs3)cc2C(=O)O)nc1-c1ccc(O)c(Cl)c1 [I-1, 2-((4-(3-chloro-4-hydroxyphenyl)-5-isobutylthiazol-2-yl)amino)-5-(thiophen-2-yl)nicotinic acid]
≤ 500	CC(C)Cc1sc(Nc2ncc(-c3cccs3)cc2C(=O)O)nc1-c1ccc(F)c(OCCOC(C)C)c1 [I-87]
≤ 500	COc1cc(-c2nc(Nc3ncc(-c4cccs4)cc3C(=O)O)sc2CC(C)(C)C)ccc1F [I-91]
≤ 500	CCOc1ccc(-c2nc(Nc3ncc(-c4cccs4)cc3C(=O)O)sc2CC(C)C)cc1 [I-11]
≤ 500	CCOc1cccc(-c2nc(Nc3ncc(-c4cccs4)cc3C(=O)O)sc2CCC(C)C)c1 [I-105]
≤ 500	CCc1ccc(-c2nc(Nc3ncc(-c4cccs4)cc3C(=O)O)sc2CC(C)C)cc1OC [I-110]
≤ 500	COCCOc1cc(-c2nc(Nc3ncc(-c4cccs4)cc3C(=O)O)sc2CC(C)C)ccc1C(F)(F)F [I-76, 2-((5-isobutyl-4-(3-(2-methoxyethoxy)-4-(trifluoromethyl)phenyl)thiazol-2-yl)amino)-5-(thiophen-2-yl)nicotinic acid]
≤ 500	CC(C)Cc1sc(Nc2ncc(-c3cccs3)cc2C(=O)O)nc1-c1ccc(OC(F)(F)F)c(F)c1 [I-10]
≤ 500	CC(C)COc1cc(-c2nc(Nc3ncc(-c4cccs4)cc3C(=O)O)sc2CC(C)(C)C)ccc1F [I-96]
≤ 500	COCCCOc1ccc(-c2nc(Nc3ncc(-c4cccs4)cc3C(=O)O)sc2CC(C)C)cc1F [I-47]
≤ 500	COCCOc1ccc(-c2nc(Nc3ncc(-c4ccc(C)s4)cc3C(=O)O)sc2C2CCCC2)cc1 [I-37]
≤ 500	CCc1cccc(-c2nc(Nc3ncc(-c4cccs4)cc3C(=O)O)sc2CC(C)C)c1 [I-123]
≤ 500	CCCOc1cccc(-c2nc(Nc3ncc(-c4cccs4)cc3C(=O)O)sc2CC(C)C)c1 [I-106]
≤ 500	CC(C)COc1cc(-c2nc(Nc3ncc(-c4cccs4)cc3C(=O)O)sc2CC(C)C)ccc1F [I-89]
≤ 500	COCCOc1cc(-c2nc(Nc3ncc(-c4cccs4)cc3C(=O)O)sc2CCC(C)C)ccc1F [I-84]

From patent US20230150997A1, “EIF4E INHIBITORS AND USES THEREOF” (PIC Therapeutics, Inc., priority 2021, published 2023)
